# Measured values from patent publication US20150196638A1, “SYSTEM AND METHOD FOR USING ULTRASOUND-STIMULATED MICROBUBBLE EXPOSURES TO INDUCE CERAMIDE ACCUMULATION IN ENDOTHELIAL AND TUMOR CELLS” (priority 2012, published 2015).
# Tests used:
# asmase +/+ astrocytes = assay: Clonogenic survival assay, asmase +/+ astrocytes; type: cell-based, mouse
# Description: All cells were grown at 37 degrees Celsius with 5% CO2. Primary astrocytes (obtained from asmase +/+ and asmase −/− mouse brains, Sunnybrook Health Sciences Centre, Toronto, ON) were cultured in DMEM with 10% fetal bovine serum (FBS) and 5% Penicillin. HUVEC cells (Sunnybrook Health Sciences Centre, Toronto, ON, Canada) were grown in EBM-2 (Lonza, Walkersville, Md. USA) supplemented with 10 ml FBS, 0.2 ml Hydrocortisone, 2 ml hFGF-B, 0.5 ml VEGF, 0.5 ml R3-IGF-1, 0.5 ml ascorbic acid, 0.5 ml hEGF, 0.5 ml GA-1000 and 0.5 ml Heparin using EGM-2 singlequots kits. Breast and PC3 cells were grown in 1640-RPMI medium (Sigma-Aldrich Canada Inc., Oakville, ON, Canada), leukemia (AML, Ontario Cancer Institute, Toronto, ON), and KHT sarcoma cells (Sunnybrook Health Science Centre) were grown in α-MEM (Sigma-Aldrich Canada Inc., Oakville, ON), all with 10% FBS and 5% penicillin. In order to harvest adherent cells, confluent flasks were PBS washed, after which 0.05% trypsin EDTA (Gibco, Carlsbad, Calif. USA) was added for 5 minutes to detach cells. After trypsinization, cells were centrifuged at 440 g for 10 minutes and brought to a final cell concentration of 2×10̂6 cells/ml of medium with 1.5 ml aliquots used for each treatment (i.e., 3×10̂6 cells/sample). In all experiments cells were carefully handled to avoid clumping after typrinsization and this was verified by microscopy in advance of ultrasound treatments.
# For ultrasound treatments, a pulse was generated by a 2.86 cm-diameter single element transducer (IL0509HP, 500 kHz center frequency, Valpey-Fisher Inc., Hopkinton, Mass., USA) connected to a micro-positioning system. The set-up also included a cylindrical chamber (10 mm diameter) for cell exposure. The chamber had mylar windows on both sides and a magnetic stirrer to mix cells and bubbles during ultrasound exposure in order to avoid standing wave effects.
# In order to treat the cells, 50 μL of 45 seconds agitated vial-mix DEFINITY® microbubbles (Perflutren lipid microspheres, Lantheus Medical Imaging, Billerica, Mass. USA) and 1.5 ml of the 2×10̂6 cells/ml solution were added to the chamber (for a 3.3% v/v bubbles concentration). Insonification took place using a peak negative pressure of 570 kPa using a pulse sequence with a 9.6% duty cycle composed of a 16 cycle tone burst and a pulse repetition frequency of 3 kHz, for a total insonification time of 2,880 milliseconds over 30 seconds. The −6 dB beamwidth for this transducer was […] and the −3 dB beamwidth was 18 mm. Transducer characteristics were measured using a calibrated hydrophone in the absence and presence of the treatment set-up.
# Sphingosine-1-Phosphate (S1P) (Biomol International L.P., Plymouth Meeting, Pa. USA) was used to counteract the mechanisms leading to ceramide-mediated apoptotic cell death. In order to treat cells, 1 μM S1P was added to asmase +/+ and asmase −/− culture media one hour before damage treatments with radiation or ultrasound, and was present during trypsinization, and for clonogenic survival assays in media. The rationale for this was that any activation of ceramide-dependent cell death by treatment may take many hours to manifest and should be inhibited long term. Treatment of cells with C2-Ceramide (Sigma-Aldrich) was carried out similarly.
# Radiation treatments were carried out by exposing samples to X-ray ionizing radiation (Faxitron Cabinet X-ray, Faxitron X-Ray LLC, IL) at a dose rate of 200 cGy/minute. […]
# [1] = tested on: ceramide in PC3 prostate tumors; assay: In vivo ceramide immunohistochemistry staining; set-up: species or system mice; settings: 4 μg IV; 2 or 8 Gy with high microbubble concentration
# From the text: (A) Quantification of ceramide immunohistochemistry staining of sections of PC3 prostate tumors treated with radiation and/or ultrasound-activated microbubbles. Labels indicate non (Nil), low (Low) and high concentration microbubble exposure (High) and radiation doses (0, 2 or 8 Gy). (B) Quantification of ceramide immunohistochemistry staining for experiments with S1P.
# In order to test if ultrasound-stimulated microbubbles in combination with ultrasound could stimulate ceramide formation, experiments were carried out using an additional cohort of 75 animals, with five mice per group. Mice were treated as above with no microbubbles, low, and high bubble concentrations in the presence of ultrasound and combined with 0, 2, and 8 Gy radiation doses given in single fractions as above for nine cohorts of n=5 animals. In addition, 0, 2, and 8 Gy conditions with and without high-concentration microbubble exposure in the presence of ultrasound were carried out in the presence of S1P using modified protocols. This used six cohorts of n=5 mice.
# For S1P treatments, 4 μg of S1P in 0.2 mL of PET (5% polyethylene glycol, 2.5% ethanol, and 0.8% Tween-80) was injected intravenously in mice 30 min prior to and 5 min after irradiation or after microbubble exposure with ultrasound and irradiation.
# [2] = tested on: Human PC3 prostate cancer xenografts; assay: ISEL / H&E cell death histology of PC3 xenograft tumors (Example 1); type: in vivo, mice
# Description: Human PC3 prostate cancer (ATCC) xenografts were grown in the hind upper leg of SCID-17 mice (Charles River) by injecting 1.0×10̂6 RPMI-1640 media cultured cells subcutaneously (Wisent Biocentre), with 10% characterized serum (HyClone), and 100 U/mL of penicillin/streptomycin (Invitrogen). Tumors were grown to 7-8 mm diameter size before treatment. For treatments, ketamine and xylazine anesthetized mice were used. Vialmix device-prepared DEFINITY® (Lantheus Medical Imaging; N. Billerica, Mass.) microbubbles (perfluoropropane gas/liposome shell) were administered at doses of 3.6×10̂8 microbubbles (L, low dose) and 1.08×10̂9 microbubbles (H, high dose) in […] volumes of prepared bubbles, respectively. The final circulating concentrations were selected to be higher (100- and 300-fold, respectively) than the diagnostic dose used to ensure efficient interactions of the bubbles and microvascular walls.
# Mice were immersed in a 37 degree Celsius water bath to permit ultrasound treatment and centered on the tumor. For ultrasound exposures, a focused central frequency 500-kHz transducer (IL0509HP; ValpeyFisher Inc.) with a 28.6-mm transducer element diameter was used. This was attached to a micropositioning system, and excited with sinusoidal wave generated by a waveform generator (AWG520; Tektronix), a pulse-receive power amplifier (RPR4000; Ritec Inc.), and a digital-acquisition system (Acquiris CC103, Agiulent Technologies NY). Tumors were exposed over 50 ms to a 16-cycle tone burst at 500-kHz and 3-kHz pulse repetition frequencies with a 10% duty cycle during the 50-ms window. Treatments were for 5 min, amounting to a 750-ms exposure over 5 min for all mouse treatments, with an average duty cycle of 0.25%. Specifically, at 500 kHz the pulse bandwidth of the 16-cycle tone burst was 0.032 ms. The pulse repetition period (3-KHz pulse repetition frequency) was 0.333,ms, which, over 50 ms, corresponded to 150 periods of 16-cycle tone burst or 4.8 ms (rounded to 5 ms). […] The ultrasound peak negative pressure was 570 kPa measured with a calibrated hydrophone. […]
# HUVEC cells = assay: Clonogenic survival assay, HUVEC; type: cell-based; settings: 1 μM
# Description: All cells were grown at 37 degrees Celsius with 5% CO2. Primary astrocytes (obtained from asmase +/+ and asmase −/− mouse brains, Sunnybrook Health Sciences Centre, Toronto, ON) were cultured in DMEM with 10% fetal bovine serum (FBS) and 5% Penicillin. HUVEC cells (Sunnybrook Health Sciences Centre, Toronto, ON, Canada) were grown in EBM-2 (Lonza, Walkersville, Md. USA) supplemented with 10 ml FBS, 0.2 ml Hydrocortisone, 2 ml hFGF-B, 0.5 ml VEGF, 0.5 ml R3-IGF-1, 0.5 ml ascorbic acid, 0.5 ml hEGF, 0.5 ml GA-1000 and 0.5 ml Heparin using EGM-2 singlequots kits. Breast and PC3 cells were grown in 1640-RPMI medium (Sigma-Aldrich Canada Inc., Oakville, ON, Canada), leukemia (AML, Ontario Cancer Institute, Toronto, ON), and KHT sarcoma cells (Sunnybrook Health Science Centre) were grown in α-MEM (Sigma-Aldrich Canada Inc., Oakville, ON), all with 10% FBS and 5% penicillin. […]
# In order to treat the cells, 50 μL of 45 seconds agitated vial-mix DEFINITY® microbubbles (Perflutren lipid microspheres, Lantheus Medical Imaging, Billerica, Mass. USA) and 1.5 ml of the 2×10̂6 cells/ml solution were added to the chamber (for a 3.3% v/v bubbles concentration). […] Transducer characteristics were measured using a calibrated hydrophone in the absence and presence of the treatment set-up. […]
molecule,measurement,setting,value
"CCCCCCCCCCCCC/C=C/[C@@H](O)[C@@H](N)COP(=O)(O)O [S1P, Sphingosine-1-Phosphate]",protective effect on survival,"asmase +/+ astrocytes; 1 μM, cells treated with either radiation or ultrasound with microbubbles",no protective effect
same,protective effect on survival,"asmase +/+ astrocytes; 1 μM, ultrasound and microbubbles prior to radiation",protection was detected
same,radioresistance of wild-type astrocytes,"asmase +/+ astrocytes; S1P-treated, radiation",conferred some radioresistance
same,ceramide increases in the presence of S1P,[1],increases were not apparent
same,effect on apoptotic cell death induced by microbubbles and radiation,"[2]; 4 μg IV 30 min before and 5 min after treatments, 0, 2, 8 Gy with or without high microbubbles",diminishment of detected apoptotic cell death
same,protection from apoptosis,"HUVEC cells; radiation or ultrasound and microbubbles, p<0.01",significantly protected
"bFGF: basic fibroblast growth factor (Sigma), a known endothelial cell protector",effect of pre-treatment on microbubble-induced cell death,[2]; 0.45 μg IV 1 hour before microbubbles (1% vol/vol) with ultrasound,diminished the cell death
same,"cell death, bFGF-treated animals with ultrasound-stimulated microbubbles versus untreated control","[2]; 0.45 μg IV, P=0.24",no difference
CCCCCCCCCCCCC/C=C/[C@@H](O)[C@H](CO)NC(C)=O [C2-Ceramide],cell kill,asmase +/+ astrocytes; 1 μM,no significant cell kill
same,survival,asmase +/+ astrocytes; ceramide alone as a control,50±5%
same,survival on ceramide exposure,HUVEC cells,did not survive
